These results are taken from patent US20230069886A1, “AROMATIC SULPHONAMIDES DERIVATIVES THAT INHIBITS PDI A3, THEIR SYNTHESIS AND USE” (Uniwersytet Jagiellonski, priority 2020, published 2023).

In one data set the test system is HL-60. Description: MTT antiproliferative assay, 72 h, HL-60. Particulars: 72 hours exposition. Format: cell-based, human. Here is the method: Anticancer activity of selected compounds of invention, PDI A3-inhibitors has been also tested in vitro in antiproliferative assay in normoxic and hypoxic conditions as well in estrogen-stimulated cancer cells. In the experiment, cells were seeded on 96-well plates (Sarstedt, Germany) in appropriate culture medium at a density of 10^5 cells/mL 24 h before adding the tested compounds. Cells were treated with each compound in four concentrations in the range 0.1-100 μg/mL. […] After 72 h of compound treatment at 37° C., 5% CO2 humid atmosphere and in wo different oxygen level conditions: 21%—normal and <1%—hypoxia. In some experiments the MDA-MB-231 and MCF-7 cells were seeded with or without 200 nM estradiol and after 24 h the tested compounds were added. A previously described sulforhodamine B antiproliferative assay was used with minor modifications (Skehan P et al., 1990). Briefly, cells were fixed with 50 μL/well of 50% (w/v) trichloroacetic acid (Avantor Performance Materials, Gliwice, Poland). After 1 h incubation, plates were washed several times with tap water and 50 μL of 0.4% (w/v) solution of sulforhodamine B (Sigma-Aldrich, Germany) in 1% (v/v) acetic acid (Avantor Performance Materials, Gliwice, Poland) was added to each well. After 30 min incubation at room temperature, unbound dye was washed out with 1% (v/v) acetic acid, whereas bound dye was solubilized with 10 mM unbuffered TRIS (Avantor Performance Materials, Gliwice, Poland) solution. The entire procedure was performed using a BioTek EL-406 washing station (BioTek Instruments, USA). After additional 30 min, absorbance was read using a Biotek Hybrid H4 reader (BioTek Instruments, USA) at 540 nm wavelength. MTT assay was used alternatively for HL-60 cell line and in the experiment in which estrogens are added (specified in the table legend). Absorbance was measured using a Biotek Hybrid H4 reader at 570 nm wavelength for MTT assay.
Compounds at each concentration were tested in triplicate in a single experiment and each experiment was repeated at least three times independently. Results are presented as mean IC50±SD.
In general terms: Tetrazolium assays rely on reduction of a dye to a coloured formazan, in cell work by metabolically active cells.

In the next data set the test system is HT-1080. The experiment in a line: MTT antiproliferative assay, 48 h, HT-1080. The note with it: 48-hour exposition, read-out: Cytotoxicity, IC50, μM HT-1080. In kind it is cell-based, human. Here is the method: Anticancer activity of compounds of invention, PDI A3-inhibitors has been tested in vitro in classical antiproliferative assay in various cancer cells lines. Monolayer tumor cell lines MDA-MB-231 (human mammary breast adenocarcinoma), MCF-7 (human breast adenocarcinoma, estrogen-positive), HT-1080 (human fibrosarcoma) and Caco-2 (human colon adenocarcinoma) were cultured in standard medium DMEM (Dulbecco's modified Eagle's medium) (“Sigma”) supplemented with 10% foetal bovine serum (“Sigma”). About 2000-4000 cells per well (depending on line nature) were placed in 96-well plates and after 24 h compounds were added to the wells. Untreated cells were used as a control. The plates were incubated for 48 h, 37° C., 5% CO2. The number of surviving cells was determined using 3-(4,5-dimethylthiazol-2-yl)-2,5-diphenyltetrazolinium bromide (MTT). MTT-test: after incubating culture medium was removed and 200 μL fresh medium with 20 μL MTT (2 mg/mL in HBSS) was added in each well of the plate. After incubation (3 hr., 37° C., 5% CO2), the medium with MTT was removed and 200 μL DMSO were added at once to each sample. The samples were tested at 540 nm on Thermo Scientific Multiskan EX microplate photometer. The half-maximal inhibitory concentration (IC50) of each compound was calculated using Graph Pad Prism® 3.0.

Molecules are shown by their SMILES. ≈ marks a conversion by molar mass, not a printed value.

What is called IC50 is the point on the concentration scale where inhibition reaches its midpoint. On to `COC(=O)C1CN1S(=O)(=O)c1ccc2c(C=O)c(N(C)C)ccc2c1` (centres unmarked) [Compound C-3390, Methyl 1-[[6-(dimethylamino)-5-formyl-2-naphthyl]sulfonyl]aziridine-2-calboxylate], for which the “IC50 [μg/ml] HL-60 normal” value with HL-60 is 14.4 ± 0.7 µg/mL (≈ 39.7 µM). In addition, the concentration for half-maximal inhibition (IC50) with HT-1080 amounted to 7.9 ± 0.9 µM.
